Experimental data taken from publication PMC6402343 (ACS chemical biology, 2019).

Key:
RhlR [1] = molecular target: T1, RhlR (Pseudomonas aeruginosa, UniProt P54292); experiment: E. coli RhlR reporter; type: cell-based; details: E. coli RhlR reporter strain; for EC50: dose-response; for Max. RhlR Activation: efficacy
RhlR [2] = molecular target: T1, RhlR; experiment: P. aeruginosa PAO-JP2 RhlR reporter; type: cell-based; details: for EC50 / Max. RhlR Activation: P. aeruginosa RhlR reporter strain; for EC50: dose-response; for Max. RhlR Activation: efficacy

T1 sequence (P54292 whole entry): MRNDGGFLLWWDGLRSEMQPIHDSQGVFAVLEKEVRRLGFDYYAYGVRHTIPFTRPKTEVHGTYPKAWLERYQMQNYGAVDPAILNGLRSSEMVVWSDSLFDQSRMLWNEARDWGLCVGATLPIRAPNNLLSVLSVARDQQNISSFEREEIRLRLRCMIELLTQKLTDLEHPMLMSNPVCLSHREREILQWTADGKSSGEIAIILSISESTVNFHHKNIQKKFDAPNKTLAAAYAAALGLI

Row | Structure (SMILES) | EC50 (RhlR [1]) [µM] | Max. RhlR Activation (RhlR [1]) [%] | EC50 (RhlR [2]) [µM] | Max. RhlR Activation (RhlR [2]) [%] | fold lower potency in P. aeruginosa relative to E. coli (RhlR [2]; ratio of EC50 values in the two RhlR reporters)
1 | CCCC(=O)N[C@H]1CCOC1=O [BHL, N-butyryl HL] | 8.95 | 100 | 8.08 | 100 | –
2 | O=C(NC1CCOC1=O)C1CCC1 (centres unmarked) [Compound 17, cyclobutyl HL] | 1.78 | 100 | 1.41 | 96 | –
3 | CC(C)CC(=O)NC1CCSC1=O (centres unmarked) [Compound 37, isovaryl homocysteine thiolactone] | 0.463 | 93 | 2.58 | 91 | ~ 5 fold
4 | CC(C)CC(=O)N[C@H]1CCOC1=O [Compound 7, isovaleryl HL] | 1.02 | 110 | 1.42 | 94 | –
